pEC50: −log10 of the molar value.
Columns and labels:
HIT-T15 cells = test: In vitro HIT-T15 cyclic AMP assay; format: cell-based; conditions: cAMP
Procedure: C. In Vitro HIT-T15 Cyclic AMP Assay:
(§1) cAMP measurements were done using a Cisbio dynamic 2 HTRF kit (Cisbio, Bedford, Mass.) according to the manufacturer's protocol. Briefly, HIT-T15 cells were harvested, counted and plated at 4000 cells/5 ul PBS-BSA solution in a black 384 welled small volume plate. Cells were treated with desired concentrations of compounds and incubated for 60 min at room temperature. Lysis buffer containing cAMP-d2 and cryptate conjugate were added and incubated for 1 h. HRTF ratio was measured on a microplate reader (BMG Labtech., Germany) at an excitation wavelength of 337 nm and emission wavelengths of 665 and 615 nm with an integration time of 400 μsec. Data were analyzed using Graphpad Prism (Graphpad software; San Diego Calif.) for EC50 determination.

human GPR119 = molecular target: T1, human GPR119 (Homo sapiens, UniProt Q8TDV5); test: In vitro cyclic AMP assay (Cisbio HTRF) in HEK293 cells transfected with human GPR119; format: cell-based; conditions: cAMP; for activation at 10 µM: 1 h, % Induction @ 10 μM; for pEC50: Emax varies between 65 to 80%
T1 construct: expressed in transfected cells; host or cells: HEK293 (transient transfection, Lipofectamine 2000)
T1 sequence (Q8TDV5 1-335): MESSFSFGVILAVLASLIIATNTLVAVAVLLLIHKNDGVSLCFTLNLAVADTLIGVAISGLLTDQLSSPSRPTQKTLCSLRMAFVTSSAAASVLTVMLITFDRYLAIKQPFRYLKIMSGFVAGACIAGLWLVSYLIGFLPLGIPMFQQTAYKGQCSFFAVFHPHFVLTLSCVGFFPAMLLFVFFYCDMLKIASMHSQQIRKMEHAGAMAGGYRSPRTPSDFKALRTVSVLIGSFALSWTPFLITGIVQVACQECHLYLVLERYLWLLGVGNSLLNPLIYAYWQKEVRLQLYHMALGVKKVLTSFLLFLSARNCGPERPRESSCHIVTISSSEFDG
How it was run: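 HEK293 cells transiently transfected with human GPR119 plasmid (or empty vector), replated 24 h later and exposed to compounds for 60 min at room temperature. cAMP measured by HTRF (cAMP-d2/cryptate, 665/620 nm ratio) after 1 h lysis; EC50 from concentration-response curves, also % induction at 10 μM.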

Mouse GPR119 = molecular target: T2, Mouse GPR119 (Mus musculus, UniProt Q7TQP3); test: In vitro mouse GPR 119 cyclic AMP assay in stably transfected HEK293 cells; format: cell-based; conditions: cAMP, HEK293 cells stably transfected with mouse GPR119
T2 construct: expressed in transfected cells
T2 sequence (Q7TQP3 1-335): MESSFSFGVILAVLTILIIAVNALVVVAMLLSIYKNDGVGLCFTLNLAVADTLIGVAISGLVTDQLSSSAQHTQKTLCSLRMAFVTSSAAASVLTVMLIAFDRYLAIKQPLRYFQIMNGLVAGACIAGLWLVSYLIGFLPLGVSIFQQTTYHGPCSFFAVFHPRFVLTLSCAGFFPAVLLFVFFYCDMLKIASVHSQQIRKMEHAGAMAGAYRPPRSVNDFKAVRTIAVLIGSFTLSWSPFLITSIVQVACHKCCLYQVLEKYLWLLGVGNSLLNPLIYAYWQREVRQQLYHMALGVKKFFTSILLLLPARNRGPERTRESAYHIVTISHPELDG
Procedure: B. In Vitro Mouse GPR 119 Cyclic AMP Assay:
as §1, with “HEK293 Cells were stably transfected with Mouse GPR119 expression plasmid DNA using Lipofectamine 2000 (Invitrogen) and maintained in culture. Cells” for “Briefly, HIT-T15 cells”, “1000” for “4000”, “ul” for “ul PBS-BSA solution”

C57Bl/6J mice = test: Oral glucose tolerance test (OGTT) in C57Bl/6J mice; format: in vivo; conditions: single oral dose 1 h before 2.0 g/kg oral glucose, sitagliptin 10 mg/kg, vs vehicle
Procedure: FIG. 1 is a graph of blood glucose over time in C57BI/6J mice according to the oral glucose tolerance test (Biological Assay Procedure E) before and after oral administration of vehicle (control), compound A (Example 64@ 30 mg/kg), or sitagliptin (10 mg/kg @ 10 mg/kg).
FIG. 2 is a graph of blood glucose over time in C57BI/6J mice according to the oral glucose tolerance test (Biological Assay Procedure E) before and after oral administration of vehicle (control), compound […] (Example 42 @ 10 mg/kg), or sitagliptin (10 mg/kg @ 10 mg/kg).
E: Oral Glucose Tolerance Test (OGTT) in C57Bl/6J Mice:
After the quarantine period, 6 hr fasted animals were randomized and divided into various groups depending on their blood glucose levels. Test compounds or standard drug (sitagliptin) was prepared as a suspension in a vehicle consisting of 0.5% methylcellulose and Tween 80 as a suspending agent. The standard drug, Compound A (example-64), Compound B (example-42) or vehicle were administered by oral gavage in a volume of 10 mL/kg. 1 h after the test compounds, standard drug and vehicle administration, blood was sampled from the tail vein of mice at time 0 min (baseline) and at 30, 60, 90 and 120 min after an oral glucose load of 2.0 g/kg of body weight. Food, but not water, was withheld from the cages during the course of experiment. The area under curve (AUC) of experimental animals was compared with that of vehicle-treated control group. The results are shown in FIGS. 1 and 2 and are discussed below.

pEC50 (HIT-T15 cells)	activation at 10 µM (human GPR119; Table I)	pEC50 (human GPR119; Table I)	pEC50 (Mouse GPR119)	activation at 10 µM (human GPR119; Table II)	pEC50 (human GPR119; Table II)	melting point	Structure (SMILES)	lowered AUCglucose (C57Bl/6J mice; FIG. 1 study, Compound A 30 mg/kg)	lowered AUCglucose (C57Bl/6J mice; FIG. 2 study, Compound B 10 mg/kg)
> 7.60	83%	≥ 7.60	> 7.60				CC(C)(C)OC(=O)N1CCC(c2nc3cc(-c4ccc(-n5cnnn5)cc4F)ccc3o2)CC1 [EXAMPLE-12, Tert-butyl 4-{5-[2-fluoro-4-(1H-tetrazol-1-yl)phenyl]benzo[d]oxazol-2-yl}piperidine-1-carboxylate]		
				75%	≥ 7.60		CC(C)OC(=O)N1CCC(c2ccc3oc(-c4ccc(S(C)(=O)=O)cc4F)nc3c2)CC1 [EXAMPLE-64, Isopropyl 4-{2-[2-fluoro-4-(methylsulfonyl)phenyl]benzo[d]oxazol-5-yl}piperidine-1-carboxylate]	24%	
	78.4%	7.30 to 7.60				116 to 120 °C	CNC(=O)c1ccc(-c2ccc3oc(C4CCN(C(=O)OC(C)C)CC4)nc3c2)cc1F [EXAMPLE-42, Isopropyl 4-{5-[3-fluoro-4-(methylcarbamoyl)phenyl]benzo[d]oxazol-2-yl}piperidine-1-carboxylate]		22%
